Measurements from ChEMBL document CHEMBL1201862, “PubChem BioAssay data set” (2004).
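Interpolation was linear, between the two tested concentrations surrounding the appropriate level; five concentrations were tested over 48 hours in 96-well plates. At the GI50, growth is halved.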 The source made the active and inactive calls. Cut-off read from the data, not from the text of the source: active = GI50 up to about 1.1 µM and inactive = higher.

Legend:
Assay in all cases: NCI tumour cell line growth inhibition, 48 h
A498 = tested on: A498
BT-549 = tested on: BT-549
CAKI-1 = tested on: CAKI-1
HCT-116 = tested on: HCT-116
HL-60 = tested on: HL-60
Hs-578T = tested on: Hs-578T
M14 = tested on: M14
RPMI-8226 = tested on: RPMI-8226
SK-OV-3 = tested on: SK-OV-3
SN12C = tested on: SN12C
SNB-19 = tested on: SNB-19
SR = tested on: SR
SW-620 = tested on: SW-620
U-251 = tested on: U-251
UACC-62 = tested on: UACC-62
UO-31 = tested on: UO-31
OVCAR-3 = tested on: OVCAR-3
OVCAR-4 = tested on: OVCAR-4
HOP-92 = tested on: HOP-92

Row | Structure (SMILES) | GI50 (A498) | GI50 (BT-549) | GI50 (CAKI-1) | GI50 (HCT-116) | GI50 (HL-60) | GI50 (Hs-578T) | GI50 (M14) | GI50 (RPMI-8226) | GI50 (SK-OV-3) | GI50 (SN12C) | GI50 (SNB-19) | GI50 (SR) | GI50 (SW-620) | GI50 (U-251) | GI50 (UACC-62) | GI50 (UO-31) | GI50 (OVCAR-3) | GI50 (OVCAR-4) | GI50 (HOP-92)
1 | OC[C@H]1N[C@H](CO)[C@@H](O)[C@H]1O | > 100 µM (inactive) | > 100 µM (inactive) | > 100 µM (inactive) | > 100 µM (inactive) | > 100 µM (inactive) | > 100 µM (inactive) | > 100 µM (inactive) | > 100 µM (inactive) | > 100 µM (inactive) | > 100 µM (inactive) | > 100 µM (inactive) | > 100 µM (inactive) | > 100 µM (inactive) | > 100 µM (inactive) | > 100 µM (inactive) | > 100 µM (inactive) | – | – | –
2 | COc1cc2nc(-c3cccs3)nc(Cl)c2cc1OC | 19.8 µM (inactive) | > 100 µM (inactive) | 80.2 µM (inactive) | > 100 µM (inactive) | > 100 µM (inactive) | > 100 µM (inactive) | > 100 µM (inactive) | – | > 100 µM (inactive) | > 100 µM (inactive) | > 100 µM (inactive) | 0.339 µM (active) | > 100 µM (inactive) | > 100 µM (inactive) | > 100 µM (inactive) | > 100 µM (inactive) | 93.3 µM (inactive) | 52.5 µM (inactive) | –
3 | Cc1nc(N)c(N2CCN(C#N)CC2)c(O)n1 | > 100 µM (inactive) | > 100 µM (inactive) | – | > 100 µM (inactive) | > 10 µM (inactive) | > 100 µM (inactive) | > 100 µM (inactive) | > 100 µM (inactive) | – | > 100 µM (inactive) | > 100 µM (inactive) | > 100 µM (inactive) | > 100 µM (inactive) | > 100 µM (inactive) | – | > 100 µM (inactive) | 28.8 µM (inactive) | – | –
4 | Cn1c(=O)[nH]n(-c2ccc3ccccc3c2)c1=O | > 100 µM (inactive) | > 100 µM (inactive) | > 100 µM (inactive) | > 100 µM (inactive) | > 100 µM (inactive) | > 100 µM (inactive) | > 100 µM (inactive) | > 100 µM (inactive) | > 100 µM (inactive) | > 100 µM (inactive) | > 100 µM (inactive) | – | > 100 µM (inactive) | > 100 µM (inactive) | > 100 µM (inactive) | > 100 µM (inactive) | > 100 µM (inactive) | > 100 µM (inactive) | > 100 µM (inactive)
5 | COc1cc2c(cc1OC)C(=O)/C(=C/c1cc(C)cc(C)c1)C2 | 0.131 µM (active) | 11.3 µM (inactive) | – | 0.0445 µM (active) | < 0.0244 µM (active) | 0.538 µM (active) | 0.148 µM (active) | 0.129 µM (active) | 0.308 µM (active) | 0.318 µM (active) | 1.1 µM (active) | – | 0.0394 µM (active) | 0.122 µM (active) | 0.0443 µM (active) | 1.95 µM (inactive) | 0.0324 µM (active) | 19.8 µM (inactive) | 3.29 µM (inactive)
6 | N#CC(C#N)=C1C(=O)NC(N)=C1C#N | > 100 µM (inactive) | > 100 µM (inactive) | > 100 µM (inactive) | > 100 µM (inactive) | > 100 µM (inactive) | > 100 µM (inactive) | > 100 µM (inactive) | > 100 µM (inactive) | > 100 µM (inactive) | > 100 µM (inactive) | > 100 µM (inactive) | – | > 100 µM (inactive) | > 100 µM (inactive) | > 100 µM (inactive) | > 100 µM (inactive) | – | > 100 µM (inactive) | > 100 µM (inactive)
7 | CN(N)c1nc(N)c(C#N)c(C#N)c1C#N | – | > 10 µM (inactive) | > 10 µM (inactive) | > 10 µM (inactive) | > 10 µM (inactive) | > 10 µM (inactive) | > 10 µM (inactive) | > 10 µM (inactive) | > 10 µM (inactive) | > 10 µM (inactive) | > 10 µM (inactive) | > 10 µM (inactive) | > 10 µM (inactive) | > 10 µM (inactive) | > 10 µM (inactive) | – | > 10 µM (inactive) | > 10 µM (inactive) | > 10 µM (inactive)
8 | Oc1ccc2c(c1)CCc1c-2n(CCN2CCOCC2)c2ccc(O)cc12 | 14.9 µM (inactive) | 31.3 µM (inactive) | 24.8 µM (inactive) | 41.3 µM (inactive) | 55.6 µM (inactive) | 32.8 µM (inactive) | 39 µM (inactive) | 29.1 µM (inactive) | 46.3 µM (inactive) | > 100 µM (inactive) | 25.1 µM (inactive) | > 100 µM (inactive) | 44.9 µM (inactive) | 35.9 µM (inactive) | 20.6 µM (inactive) | 10.4 µM (inactive) | 48.6 µM (inactive) | – | –
9 | COC(=O)c1ccccc1NC(=S)NN(C)C | > 100 µM (inactive) | > 100 µM (inactive) | > 100 µM (inactive) | > 100 µM (inactive) | > 100 µM (inactive) | > 100 µM (inactive) | > 100 µM (inactive) | > 100 µM (inactive) | > 100 µM (inactive) | – | > 100 µM (inactive) | > 100 µM (inactive) | > 100 µM (inactive) | > 100 µM (inactive) | > 100 µM (inactive) | > 100 µM (inactive) | > 100 µM (inactive) | > 100 µM (inactive) | –
10 | Cc1nc(Nc2ccccc2Cl)sc1C(=O)CC(=O)C(=O)Nc1c(Cl)cccc1Cl | – | 24.2 µM (inactive) | 84.1 µM (inactive) | 18.8 µM (inactive) | 8.95 µM (inactive) | 25.2 µM (inactive) | 29.9 µM (inactive) | 28.2 µM (inactive) | 29.1 µM (inactive) | 44 µM (inactive) | 63.8 µM (inactive) | 31.2 µM (inactive) | 26.5 µM (inactive) | 24.9 µM (inactive) | 45.6 µM (inactive) | 23 µM (inactive) | 17.4 µM (inactive) | 49.1 µM (inactive) | 20.6 µM (inactive)
11 | C=C1CC/C=C(/C(=O)O)CC[C@H]2[C@@H]1CC2(C)C | > 100 µM (inactive) | > 100 µM (inactive) | > 100 µM (inactive) | > 100 µM (inactive) | > 100 µM (inactive) | > 100 µM (inactive) | > 100 µM (inactive) | > 100 µM (inactive) | > 100 µM (inactive) | > 100 µM (inactive) | > 100 µM (inactive) | – | > 100 µM (inactive) | > 100 µM (inactive) | > 100 µM (inactive) | > 100 µM (inactive) | > 100 µM (inactive) | > 100 µM (inactive) | 70 µM (inactive)
12 | CC(=O)N1c2ccccc2C2=NN=C(N(C)C)SC21 (configuration not stated) | 3.17 µM (inactive) | 9.35 µM (inactive) | – | 2.72 µM (inactive) | 2.14 µM (inactive) | 13.5 µM (inactive) | 1.84 µM (inactive) | 5.96 µM (inactive) | – | 2.08 µM (inactive) | 3.85 µM (inactive) | 3.28 µM (inactive) | 4.78 µM (inactive) | 1.67 µM (inactive) | – | 1.45 µM (inactive) | 3.05 µM (inactive) | 10.4 µM (inactive) | –
13 | Nc1cc2[nH]c(=O)c3cc(Cl)ccc3c2cc1Cl | – | > 100 µM (inactive) | 8.38 µM (inactive) | 5.15 µM (inactive) | 32.4 µM (inactive) | 39.1 µM (inactive) | 36.8 µM (inactive) | 0.514 µM (active) | 3.98 µM (inactive) | 10.2 µM (inactive) | 8.47 µM (inactive) | 2.44 µM (inactive) | 8.55 µM (inactive) | 10.9 µM (inactive) | 16.7 µM (inactive) | 10.2 µM (inactive) | 12.4 µM (inactive) | 31.9 µM (inactive) | –
14 | O=C1CCN2c3ccccc3[C@H]3Cc4cccc(c4[C@@H]2C3)CCO1 | 56.5 µM (inactive) | 57.8 µM (inactive) | 41.9 µM (inactive) | 21.6 µM (inactive) | 25.5 µM (inactive) | – | 19.4 µM (inactive) | 31 µM (inactive) | 51.2 µM (inactive) | 16.3 µM (inactive) | 86.9 µM (inactive) | 26.1 µM (inactive) | 35.3 µM (inactive) | 40.5 µM (inactive) | 43.5 µM (inactive) | 22.9 µM (inactive) | 26.5 µM (inactive) | 57.1 µM (inactive) | 31 µM (inactive)
15 | CC(C)=C1C2CC3(C)CCC2(C)CCC13.CC1=CCC2C3(C)CCC2(C(C)C)C1C3 (configuration not stated) | 34 µM (inactive) | 19.8 µM (inactive) | 17.3 µM (inactive) | 31.6 µM (inactive) | 24.2 µM (inactive) | 18.4 µM (inactive) | 20.1 µM (inactive) | 24.9 µM (inactive) | > 100 µM (inactive) | 18.2 µM (inactive) | 18.4 µM (inactive) | – | 23.7 µM (inactive) | 23.4 µM (inactive) | 64.1 µM (inactive) | 26.7 µM (inactive) | 16.5 µM (inactive) | 26.1 µM (inactive) | 27.7 µM (inactive)
16 | O=C1/C(=C/c2ccc([N+](=O)[O-])cc2)C(=O)N(c2ccccc2)C1c1ccccc1 (configuration not stated) | > 10 µM (inactive) | > 10 µM (inactive) | > 10 µM (inactive) | > 10 µM (inactive) | > 10 µM (inactive) | > 10 µM (inactive) | > 10 µM (inactive) | > 10 µM (inactive) | > 10 µM (inactive) | > 10 µM (inactive) | > 10 µM (inactive) | > 10 µM (inactive) | > 10 µM (inactive) | > 10 µM (inactive) | > 10 µM (inactive) | > 10 µM (inactive) | > 10 µM (inactive) | > 10 µM (inactive) | –
